Test results taken from ChEMBL document CHEMBL4270577, “Synthesis, anticancer activity and molecular modeling studies of 1,2,4-triazole derivatives as EGFR inhibitors” (Eur J Med Chem, 2018).

What was measured:
[1] = tested on: MCF7; assay: Growth inhibition of human MCF7 cells at 10 uM incubated for 48 hrs by sulforhodamine B assay relative to control; format: functional; conditions: MCF7, 48 h, read-out: GI
[2] = tested on: PC-3; assay: Growth inhibition of human PC3 cells at 10 uM incubated for 48 hrs by sulforhodamine B assay relative to control; format: functional; conditions: PC-3, 48 h, read-out: GI
[3] = tested on: UO-31; assay: Growth inhibition of human UO31 cells at 10 uM incubated for 48 hrs by sulforhodamine B assay relative to control; format: functional; conditions: UO-31, 48 h, read-out: GI
[4] = tested on: U-251; assay: Growth inhibition of human U251 cells at 10 uM incubated for 48 hrs by sulforhodamine B assay relative to control; format: functional; conditions: U-251, 48 h, read-out: GI
[5] = tested on: SF-539; assay: Growth inhibition of human SF539 cells at 10 uM incubated for 48 hrs by sulforhodamine B assay relative to control; format: functional; conditions: SF-539, 48 h, read-out: GI
[6] = tested on: SNB-75; assay: Growth inhibition of human SNB75 cells at 10 uM incubated for 48 hrs by sulforhodamine B assay relative to control; format: functional; conditions: SNB-75, 48 h, read-out: GI
[7] = tested on: A549; assay: Growth inhibition of human A549/ATCC cells at 10 uM incubated for 48 hrs by sulforhodamine B assay relative to control; format: functional; conditions: A549, 48 h, read-out: GI
[8] = tested on: HOP-62; assay: Growth inhibition of human HOP62 cells at 10 uM incubated for 48 hrs by sulforhodamine B assay relative to control; format: functional; conditions: HOP-62, 48 h, read-out: GI
[9] = tested on: NCI-H322M; assay: Growth inhibition of human NCI-H322M cells at 10 uM incubated for 48 hrs by sulforhodamine B assay relative to control; format: functional; conditions: read-out: GI
[10] = tested on: T47D; assay: Growth inhibition of human T47D cells at 10 uM incubated for 48 hrs by sulforhodamine B assay relative to control; format: functional; conditions: read-out: GI
[11] = tested on: NCI-H23; assay: Growth inhibition of human NCI-H23 cells at 10 uM incubated for 48 hrs by sulforhodamine B assay relative to control; format: functional; conditions: NCI-H23, 48 h, read-out: GI
[12] = tested on: HOP-92; assay: Growth inhibition of human HOP92 cells at 10 uM incubated for 48 hrs by sulforhodamine B assay relative to control; format: functional; conditions: HOP-92, 48 h, read-out: GI
[13] = tested on: NCI-H522; assay: Growth inhibition of human NCI-H522 cells at 10 uM incubated for 48 hrs by sulforhodamine B assay relative to control; format: functional; conditions: NCI-H522, 48 h, read-out: GI
[14] = tested on: HT-29; assay: Growth inhibition of human HT-29 cells at 10 uM incubated for 48 hrs by sulforhodamine B assay relative to control; format: functional; conditions: HT-29, 48 h, read-out: GI
[15] = tested on: Malme-3M; assay: Growth inhibition of human MALME-3M cells at 10 uM incubated for 48 hrs by sulforhodamine B assay relative to control; format: functional; conditions: read-out: GI
[16] = tested on: SK-MEL-28; assay: Growth inhibition of human SK-MEL-28 cells at 10 uM incubated for 48 hrs by sulforhodamine B assay relative to control; format: functional; conditions: SK-MEL-28, 48 h, read-out: GI
[17] = tested on: PANC-1; assay: Antiproliferative activity against human PANC1 cells after 48 hrs by propidium iodide staining-based fluorometric analysis; format: functional, cell-based; conditions: PANC-1, 48 h
[18] = tested on: K562; assay: Growth inhibition of human K562 cells at 10 uM incubated for 48 hrs by sulforhodamine B assay relative to control; format: functional; conditions: K562, 48 h, read-out: GI
[19] = tested on: Hs-578T; assay: Growth inhibition of human Hs 578T cells at 10 uM incubated for 48 hrs by sulforhodamine B assay relative to control; format: functional; conditions: read-out: GI
[20] = tested on: MDA-MB-435; assay: Growth inhibition of human MDA-MB-435 cells at 10 uM incubated for 48 hrs by sulforhodamine B assay relative to control; format: functional; conditions: MDA-MB-435, 48 h, read-out: GI
[21] = tested on: OVCAR-8; assay: Growth inhibition of human OVCAR8 cells at 10 uM incubated for 48 hrs by sulforhodamine B assay relative to control; format: functional; conditions: OVCAR-8, 48 h, read-out: GI
[22] = tested on: UACC-257; assay: Growth inhibition of human UACC257 cells at 10 uM incubated for 48 hrs by sulforhodamine B assay relative to control; format: functional; conditions: UACC-257, 48 h, read-out: GI
[23] = tested on: TK-10; assay: Growth inhibition of human TK10 cells at 10 uM incubated for 48 hrs by sulforhodamine B assay relative to control; format: functional; conditions: TK-10, 48 h, read-out: GI
[24] = tested on: SK-OV-3; assay: Growth inhibition of human SKOV3 cells at 10 uM incubated for 48 hrs by sulforhodamine B assay relative to control; format: functional; conditions: SK-OV-3, 48 h, read-out: GI
[25] = tested on: SR; assay: Growth inhibition of human SR cells at 10 uM incubated for 48 hrs by sulforhodamine B assay relative to control; format: functional; conditions: read-out: GI
[26] = tested on: CCRF-CEM; assay: Growth inhibition of human CCRF-CEM cells at 10 uM incubated for 48 hrs by sulforhodamine B assay relative to control; format: functional; conditions: read-out: GI
[27] = tested on: RPMI-8226; assay: Growth inhibition of human RPMI8226 cells at 10 uM incubated for 48 hrs by sulforhodamine B assay relative to control; format: functional; conditions: RPMI-8226, 48 h, read-out: GI
[28] = tested on: SK-MEL-5; assay: Growth inhibition of human SK-MEL-5 cells at 10 uM incubated for 48 hrs by sulforhodamine B assay relative to control; format: functional; conditions: SK-MEL-5, 48 h, read-out: GI
[29] = tested on: KM12; assay: Growth inhibition of human KM12 cells at 10 uM incubated for 48 hrs by sulforhodamine B assay relative to control; format: functional; conditions: KM12, 48 h, read-out: GI
[30] = tested on: NCI-H460; assay: Antiproliferative activity against human H460 cells after 48 hrs by propidium iodide staining-based fluorometric analysis; format: functional, cell-based; conditions: NCI-H460, 48 h
[31] = tested on: SN12C; assay: Growth inhibition of human SN12C cells at 10 uM incubated for 48 hrs by sulforhodamine B assay relative to control; format: functional; conditions: read-out: GI
[32] = tested on: HL-60(TB); assay: Growth inhibition of human HL-60(TB) cells at 10 uM incubated for 48 hrs by sulforhodamine B assay relative to control; format: functional; conditions: HL-60, 48 h, read-out: GI
[33] = tested on: MOLT-4; assay: Growth inhibition of human MOLT4 cells at 10 uM incubated for 48 hrs by sulforhodamine B assay relative to control; format: functional; conditions: MOLT-4, 48 h, read-out: GI
[34] = tested on: A498; assay: Growth inhibition of human A498 cells at 10 uM incubated for 48 hrs by sulforhodamine B assay relative to control; format: functional; conditions: A498, 48 h, read-out: GI
[35] = tested on: SW-620; assay: Growth inhibition of human SW620 cells at 10 uM incubated for 48 hrs by sulforhodamine B assay relative to control; format: functional; conditions: SW-620, 48 h, read-out: GI
[36] = tested on: HT-29; assay: Antiproliferative activity against human HT-29 cells after 48 hrs by propidium iodide staining-based fluorometric analysis; format: functional, cell-based; conditions: HT-29, 48 h
[37] = tested on: NCI-H226; assay: Growth inhibition of human NCI-H226 cells at 10 uM incubated for 48 hrs by sulforhodamine B assay relative to control; format: functional; conditions: NCI-H226, 48 h, read-out: GI
[38] = tested on: SK-MEL-2; assay: Growth inhibition of human SK-MEL-2 cells at 10 uM incubated for 48 hrs by sulforhodamine B assay relative to control; format: functional; conditions: SK-MEL-2, 48 h, read-out: GI
[39] = tested on: UACC-62; assay: Growth inhibition of human UACC62 cells at 10 uM incubated for 48 hrs by sulforhodamine B assay relative to control; format: functional; conditions: UACC-62, 48 h, read-out: GI
[40] = tested on: SF-268; assay: Growth inhibition of human SF268 cells at 10 uM incubated for 48 hrs by sulforhodamine B assay relative to control; format: functional; conditions: SF-268, 48 h, read-out: GI
[41] = tested on: MIA PaCa-2; assay: Antiproliferative activity against human MIAPaCa2 cells after 48 hrs by propidium iodide staining-based fluorometric analysis; format: functional, cell-based; conditions: MIA PaCa-2, 48 h
[42] = tested on: A549; assay: Cell cycle arrest in human A549 cells assessed as accumulation at S phase at 0.4 uM after 24 hrs by propidium iodide staining based flow cytometry (reference value: 27.9%); format: functional
[43] = tested on: A549; assay: Cell cycle arrest in human A549 cells assessed as accumulation at G1 phase at 0.4 uM after 24 hrs by propidium iodide staining based flow cytometry (reference value: 67.52%); format: functional
[44] = tested on: A549; assay: Cell cycle arrest in human A549 cells assessed as accumulation at G2 phase at 0.4 uM after 24 hrs by propidium iodide staining based flow cytometry (reference value: 4.19%); format: functional
[45] = tested on: A549; assay: Induction of apoptosis in human A549 cells assessed as late apoptotic cells at 0.4 uM after 24 hrs by Annexin V/propidium iodide staining based flow cytometric analysis (reference value: 0.08%); format: functional
[46] = tested on: A549; assay: Induction of apoptosis in human A549 cells assessed as early apoptotic cells at 0.4 uM after 24 hrs by Annexin V/propidium iodide staining based flow cytometric analysis (reference value: 0.22%); format: functional
[47] = tested on: A549; assay: Induction of apoptosis in human A549 cells assessed as viable cells at 0.4 uM after 24 hrs by Annexin V/propidium iodide staining based flow cytometric analysis (reference value: 98.03%); format: functional; conditions: A549, 24 h, read-out: Activity
[48] = tested on: A549; assay: Induction of apoptosis in human A549 cells assessed as necrotic cells at 0.4 uM after 24 hrs by Annexin V/propidium iodide staining based flow cytometric analysis (reference value: 0.09%); format: functional
[49] = target: Epidermal growth factor receptor (Homo sapiens, UniProt P00533); assay: Inhibition of His6-tagged recombinant EGFR cytoplasmic domain (645 to 1186 residues) (unknown origin) expressed in baculovirus infected Sf9 insect cells preincubated for 10 mins followed by ATP-MgCl2 addition and measured after 1 hr by DELFIA/time-resolved fluorometric analysis
Sequence of Epidermal growth factor receptor (P00533 whole entry, the tested form may be a part): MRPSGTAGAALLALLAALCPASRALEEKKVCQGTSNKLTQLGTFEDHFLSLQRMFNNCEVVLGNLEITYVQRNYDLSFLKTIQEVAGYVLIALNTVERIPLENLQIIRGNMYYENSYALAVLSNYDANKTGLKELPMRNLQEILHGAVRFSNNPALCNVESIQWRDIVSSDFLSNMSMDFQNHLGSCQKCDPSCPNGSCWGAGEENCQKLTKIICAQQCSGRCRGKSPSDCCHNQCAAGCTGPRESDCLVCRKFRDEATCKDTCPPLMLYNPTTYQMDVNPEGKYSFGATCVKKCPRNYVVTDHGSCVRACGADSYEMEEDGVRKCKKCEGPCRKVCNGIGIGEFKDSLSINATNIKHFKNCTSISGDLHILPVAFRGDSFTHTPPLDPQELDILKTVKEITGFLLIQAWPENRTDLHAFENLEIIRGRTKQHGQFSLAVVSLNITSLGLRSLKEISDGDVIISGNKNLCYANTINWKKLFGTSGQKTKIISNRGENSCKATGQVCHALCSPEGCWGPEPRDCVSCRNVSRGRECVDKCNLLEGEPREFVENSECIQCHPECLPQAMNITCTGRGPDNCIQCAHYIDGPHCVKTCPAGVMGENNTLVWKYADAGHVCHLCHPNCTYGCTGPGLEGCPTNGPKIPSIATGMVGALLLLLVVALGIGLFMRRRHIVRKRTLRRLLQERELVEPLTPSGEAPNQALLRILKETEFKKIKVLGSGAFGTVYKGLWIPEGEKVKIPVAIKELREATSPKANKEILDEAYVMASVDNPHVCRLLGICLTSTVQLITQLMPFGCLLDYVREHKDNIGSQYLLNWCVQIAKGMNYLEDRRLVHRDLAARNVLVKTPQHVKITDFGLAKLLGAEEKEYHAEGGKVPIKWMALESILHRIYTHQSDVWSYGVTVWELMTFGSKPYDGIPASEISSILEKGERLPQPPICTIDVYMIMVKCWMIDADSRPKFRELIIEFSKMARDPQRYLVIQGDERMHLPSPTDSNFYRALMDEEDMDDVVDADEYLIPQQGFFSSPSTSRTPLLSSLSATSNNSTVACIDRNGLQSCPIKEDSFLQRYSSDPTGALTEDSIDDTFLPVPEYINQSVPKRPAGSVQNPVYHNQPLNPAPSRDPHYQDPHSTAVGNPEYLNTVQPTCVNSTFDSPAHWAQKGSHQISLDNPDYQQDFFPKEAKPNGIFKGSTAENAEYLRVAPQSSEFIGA

With COc1cc(-c2nc(N)n(CC(=O)Nc3ccc(/C(C)=N\O)cc3)n2)cc(OC)c1OC the inhibition of growth at 10 µM [1] was 10.8%, the inhibition of growth at 10 µM [2] was 23.3% and the inhibition of growth at 10 µM [3] was 20.5%. The inhibition of growth at 10 µM [4] was 14.2%, the inhibition of growth at 10 µM [5] was 2.92% and the inhibition of growth at 10 µM [6] was 25.9%. The inhibition of growth at 10 µM [7] was 25.8%, the inhibition of growth at 10 µM [8] was 5.54% and the inhibition of growth at 10 µM [9] was 5.82%. The inhibition of growth at 10 µM [10] was 8.77%, the inhibition of growth at 10 µM [11] was 4.21% and the inhibition of growth at 10 µM [12] was 11.8%. It also gave an inhibition of growth at 10 µM [13] of 29.2%, an inhibition of growth at 10 µM [14] of 13.6% and an inhibition of growth at 10 µM [15] of 3.25%. It also gave an inhibition of growth at 10 µM [16] of 5.76%, an IC50 [17] of 5.2 µM and an inhibition of growth at 10 µM [18] of 3.93%. For the same molecule, the inhibition of growth at 10 µM [19] was 17.9%, the inhibition of growth at 10 µM [20] was 18% and the inhibition of growth at 10 µM [21] was 25.7%. The inhibition of growth at 10 µM [22] was 36.3%, the inhibition of growth at 10 µM [23] was 9.11% and the inhibition of growth at 10 µM [24] was 12.1%. The inhibition of growth at 10 µM [25] was 17%, the inhibition of growth at 10 µM [26] was 15.5% and the inhibition of growth at 10 µM [27] was 5.69%. It also gave an inhibition of growth at 10 µM [28] of 2.08%, an inhibition of growth at 10 µM [29] of 2.75% and an IC50 [30] of 7.9 µM. For the same molecule, the inhibition of growth at 10 µM [31] was 4%, the inhibition of growth at 10 µM [32] was 8.41% and the inhibition of growth at 10 µM [33] was 8.41%. It also gave an inhibition of growth at 10 µM [34] of 11.2%, an inhibition of growth at 10 µM [35] of 4.8% and an IC50 [36] of 7.9 µM. The inhibition of growth at 10 µM [37] was 5.19%, the inhibition of growth at 10 µM [38] was 8% and the inhibition of growth at 10 µM [39] was 16.4%. It also gave an inhibition of growth at 10 µM [40] of 6.49% and an IC50 [41] of 5.7 µM.
In the case of COc1cc(-c2nc3sc(-c4ccc(Cl)cc4)cn3n2)cc(OC)c1OC, the Activity [42] is reported as 12.69%, the Activity [43] is reported as 49.52% and the Activity [44] is reported as 22.92%. The Activity [45] was 7.65%, the IC50 [17] was 3.5 µM and the Activity [46] was 5.38%. The viability at 0.4 µM [47] was 83.5%, the IC50 [30] was 3 µM and the IC50 [36] was 3.5 µM. The Activity [48] was 1.84%, the IC50 [49] was 1700 nM and the IC50 [41] was 3.9 µM.
